In ChEMBL document CHEMBL1909046, “DrugMatrix in vitro pharmacology data”:

Key:
Adenosine receptor A1 = target: T1, Adenosine receptor A1 (Homo sapiens, UniProt P30542); assay type: cell membranes, CHO, Membrane; details: cho;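 note: radioligand binding assay at the adenosine A1 receptor, with DPCPX serving as the labelled ligand; in other assays of this panel Not Active means under 50% inhibition at 10 µM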
T1 sequence (P30542 whole entry): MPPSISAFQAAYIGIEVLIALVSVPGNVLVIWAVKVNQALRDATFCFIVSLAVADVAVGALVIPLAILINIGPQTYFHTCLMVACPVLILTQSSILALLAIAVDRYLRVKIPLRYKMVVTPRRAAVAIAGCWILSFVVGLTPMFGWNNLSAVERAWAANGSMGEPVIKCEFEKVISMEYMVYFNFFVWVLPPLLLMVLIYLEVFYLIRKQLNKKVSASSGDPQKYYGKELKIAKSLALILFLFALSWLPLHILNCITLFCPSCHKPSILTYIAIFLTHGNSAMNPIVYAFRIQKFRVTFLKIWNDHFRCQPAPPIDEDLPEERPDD

Cytochrome P450 1A2 = target: T2, Cytochrome P450 1A2 (Homo sapiens, UniProt P05177); details: bti-tn-5b1-4; note: in other assays of this panel Not Active means under 50% inhibition at 10 µM
T2 sequence (P05177 whole entry): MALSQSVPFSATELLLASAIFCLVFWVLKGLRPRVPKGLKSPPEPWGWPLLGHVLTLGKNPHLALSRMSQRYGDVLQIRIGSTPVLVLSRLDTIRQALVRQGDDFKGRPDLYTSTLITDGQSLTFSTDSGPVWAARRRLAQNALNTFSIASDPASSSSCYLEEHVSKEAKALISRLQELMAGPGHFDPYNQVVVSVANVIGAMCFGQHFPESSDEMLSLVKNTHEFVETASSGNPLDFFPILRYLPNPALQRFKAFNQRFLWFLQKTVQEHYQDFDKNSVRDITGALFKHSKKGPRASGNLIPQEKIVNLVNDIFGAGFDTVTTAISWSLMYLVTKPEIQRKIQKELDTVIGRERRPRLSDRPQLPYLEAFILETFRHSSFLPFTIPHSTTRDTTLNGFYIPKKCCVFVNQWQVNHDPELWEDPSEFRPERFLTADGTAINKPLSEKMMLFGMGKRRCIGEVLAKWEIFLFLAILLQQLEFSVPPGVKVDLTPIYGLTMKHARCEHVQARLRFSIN

[1] = target: T3, Amine oxidase [flavin-containing] A (Homo sapiens, UniProt P21397); assay: DRUGMATRIX: Monoamine Oxidase MAO-A enzyme inhibition (substrate: Kynuramine); set-up: species or system BTI-TN-5B1-4; details: bti-tn-5b1-4; Not Active = under 50% inhibition at 10 µM
T3 sequence (P21397 whole entry): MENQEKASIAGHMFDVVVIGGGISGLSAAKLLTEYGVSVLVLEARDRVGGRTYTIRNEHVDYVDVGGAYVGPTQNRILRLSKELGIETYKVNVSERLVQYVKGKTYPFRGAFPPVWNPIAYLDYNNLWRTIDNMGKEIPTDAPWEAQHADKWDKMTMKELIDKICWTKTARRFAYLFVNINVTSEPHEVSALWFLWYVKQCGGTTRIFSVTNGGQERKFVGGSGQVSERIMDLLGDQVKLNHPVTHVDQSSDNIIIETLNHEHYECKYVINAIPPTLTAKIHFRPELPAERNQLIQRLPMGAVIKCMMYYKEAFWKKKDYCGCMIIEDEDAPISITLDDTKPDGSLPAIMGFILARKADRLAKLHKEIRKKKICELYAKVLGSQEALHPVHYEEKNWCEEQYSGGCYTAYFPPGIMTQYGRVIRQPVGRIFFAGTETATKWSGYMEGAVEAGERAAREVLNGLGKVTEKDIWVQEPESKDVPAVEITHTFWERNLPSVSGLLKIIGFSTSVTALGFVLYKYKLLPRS

[2] = target: T4, Type-2 angiotensin II receptor (Homo sapiens, UniProt P50052); assay: biochemical; assay type: cell-based, CHO-K1; details: cho-k1; note: in other assays of this panel Not Active means under 50% inhibition at 10 µM
T4 sequence (P50052 whole entry): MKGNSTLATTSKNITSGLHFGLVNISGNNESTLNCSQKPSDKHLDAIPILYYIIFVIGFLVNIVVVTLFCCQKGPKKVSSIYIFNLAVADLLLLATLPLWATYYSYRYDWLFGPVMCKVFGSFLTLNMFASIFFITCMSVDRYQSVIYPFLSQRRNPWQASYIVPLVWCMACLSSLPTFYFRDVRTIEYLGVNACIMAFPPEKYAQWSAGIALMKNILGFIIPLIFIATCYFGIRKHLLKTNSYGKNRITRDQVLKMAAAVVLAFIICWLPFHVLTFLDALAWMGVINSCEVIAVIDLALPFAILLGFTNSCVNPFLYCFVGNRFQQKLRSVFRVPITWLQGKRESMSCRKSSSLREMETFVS

[3] = target: Mitogen-activated protein kinase 3 (Homo sapiens, UniProt P27361); assay: DRUGMATRIX: Protein Serine/Threonine Kinase, ERK1 enzyme inhibition (substrate: Myelin Basic Protein); set-up: species or system Escherichia coli; details: Not Active = under 50% inhibition at 10 µM
Sequence of Mitogen-activated protein kinase 3 (P27361 whole entry): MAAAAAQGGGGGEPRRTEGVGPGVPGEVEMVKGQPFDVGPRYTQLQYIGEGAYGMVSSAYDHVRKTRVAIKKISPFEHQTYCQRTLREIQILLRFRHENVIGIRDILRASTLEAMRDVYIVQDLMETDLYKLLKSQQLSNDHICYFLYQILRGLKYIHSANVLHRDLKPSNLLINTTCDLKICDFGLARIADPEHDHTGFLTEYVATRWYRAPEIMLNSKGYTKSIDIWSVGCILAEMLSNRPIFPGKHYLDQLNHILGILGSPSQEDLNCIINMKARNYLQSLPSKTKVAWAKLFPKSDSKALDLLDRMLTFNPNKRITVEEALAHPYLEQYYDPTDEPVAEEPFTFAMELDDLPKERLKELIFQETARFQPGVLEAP

Glycine receptor = Glycine receptor (Rattus norvegicus, UniProt P22771+P24524+P07727+P20781); assay type: cell membranes, Wistar, Spinal cord, Membrane; note: in other assays of this panel Not Active means under 50% inhibition at 10 µM
[4] = target: T5, Neuropeptide Y receptor type 1 (Homo sapiens, UniProt P25929); assay type: cell membranes, Membrane; details: sk-n-mc; note: in other assays of this panel Not Active means under 50% inhibition at 10 µM
T5 sequence (P25929 whole entry): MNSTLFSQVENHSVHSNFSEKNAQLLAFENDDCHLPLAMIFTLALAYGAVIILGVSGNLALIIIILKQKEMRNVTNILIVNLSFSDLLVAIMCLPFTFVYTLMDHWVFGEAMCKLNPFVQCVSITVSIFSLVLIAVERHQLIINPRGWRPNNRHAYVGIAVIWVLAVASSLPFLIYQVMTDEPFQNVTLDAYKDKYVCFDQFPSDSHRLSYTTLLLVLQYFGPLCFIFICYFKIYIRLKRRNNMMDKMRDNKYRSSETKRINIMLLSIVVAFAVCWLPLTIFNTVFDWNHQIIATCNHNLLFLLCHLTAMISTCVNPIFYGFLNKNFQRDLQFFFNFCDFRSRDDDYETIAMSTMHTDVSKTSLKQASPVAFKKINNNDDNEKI

COC(=O)[C@H]1[C@H]2C[C@@H]3c4[nH]c5cc(OC)ccc5c4CCN3C[C@H]2C[C@@H](OC(=O)c2cc(OC)c(OC)c(OC)c2)[C@@H]1OC [RESERPINE]
Not Active: IC50 (Adenosine receptor A1) | IC50 (Cytochrome P450 1A2) | Ki (Cytochrome P450 1A2) | IC50 [1] | IC50 [2] | IC50 [3] | IC50 (Glycine receptor) | IC50 [4]

O=C(O)c1ccccc1O [SALICYLIC ACID]
Not Active: IC50 (Adenosine receptor A1) | IC50 (Cytochrome P450 1A2) | Ki (Cytochrome P450 1A2) | IC50 [1] | IC50 [2] | IC50 [3] | IC50 (Glycine receptor) | IC50 [4]

CC1CCC(NC(=O)N(CCCl)N=O)CC1 (stereo not given) [SEMUSTINE]
Not Active: IC50 (Adenosine receptor A1) | IC50 (Cytochrome P450 1A2) | Ki (Cytochrome P450 1A2) | IC50 [1] | IC50 [2] | IC50 [3] | IC50 (Glycine receptor) | IC50 [4]

C[N+](C)(C)CCOC(=O)CCC(=O)OCC[N+](C)(C)C.[Cl-].[Cl-] [SUCCINYLCHOLINE CHLORIDE]
Not Active: IC50 (Adenosine receptor A1) | IC50 (Cytochrome P450 1A2) | Ki (Cytochrome P450 1A2) | IC50 [1] | IC50 [2] | IC50 [3] | IC50 (Glycine receptor) | IC50 [4]

Nc1ccc(S(=O)(=O)NC(=O)c2ccccc2)cc1 [SULFABENZAMIDE]
Not Active: IC50 (Adenosine receptor A1) | IC50 (Cytochrome P450 1A2) | Ki (Cytochrome P450 1A2) | IC50 [1] | IC50 [2] | IC50 [3] | IC50 (Glycine receptor) | IC50 [4]

O=c1[nH]c(=O)n(C2CCCO2)cc1F (stereo not given) [TEGAFUR]
Not Active: IC50 (Adenosine receptor A1) | IC50 (Cytochrome P450 1A2) | Ki (Cytochrome P450 1A2) | IC50 [1] | IC50 [2] | IC50 [3] | IC50 (Glycine receptor) | IC50 [4]

CC(=N)S [THIOACETAMIDE]
Not Active: IC50 (Adenosine receptor A1) | IC50 (Cytochrome P450 1A2) | Ki (Cytochrome P450 1A2) | IC50 [1] | IC50 [2] | IC50 [3] | IC50 (Glycine receptor) | IC50 [4]

Cc1ccc(C(=O)c2ccc(CC(=O)O)n2C)cc1 [TOLMETIN]
Not Active: IC50 (Adenosine receptor A1) | IC50 (Cytochrome P450 1A2) | Ki (Cytochrome P450 1A2) | IC50 [1] | IC50 [2] | IC50 [3] | IC50 (Glycine receptor) | IC50 [4]

CC(=O)OCC(COC(C)=O)OC(C)=O [TRIACETIN]
Not Active: IC50 (Adenosine receptor A1) | IC50 (Cytochrome P450 1A2) | Ki (Cytochrome P450 1A2) | IC50 [1] | IC50 [2] | IC50 [3] | IC50 (Glycine receptor) | IC50 [4]

TRANSPLATIN
Not Active: IC50 (Adenosine receptor A1) | Ki (Adenosine receptor A1) | IC50 (Cytochrome P450 1A2) | Ki (Cytochrome P450 1A2) | IC50 [1] | Ki [1] | IC50 [2] | Ki [2] | IC50 [3] | Ki [3] | IC50 (Glycine receptor) | Ki (Glycine receptor) | IC50 [4] | Ki [4]

ZIRCONIUM(IV) CHLORIDE
Not Active: IC50 (Adenosine receptor A1) | Ki (Adenosine receptor A1) | IC50 (Cytochrome P450 1A2) | Ki (Cytochrome P450 1A2) | IC50 [1] | Ki [1] | IC50 [2] | Ki [2] | IC50 [3] | Ki [3] | IC50 (Glycine receptor) | Ki (Glycine receptor) | IC50 [4] | Ki [4]
